≈ marks a conversion by molar mass, not a printed value. Like-named read-outs stand apart in the source and are kept apart here.
Tested on: C. glabrata parent strain (ATCC 90030) and C. glabrata mutants
Experiment: microbe, parasite or virus in culture
Type: cell-based
Settings: for MIC80: C. glabrata parent strain
[1] = C. glabrata (ATCC 90030) parent strain

Structure (SMILES) | 4-fold synergy Fluconazole/Cpd 4 [1] | 4-fold synergy Itraconazole/Cpd 4 [1] | Compound 4 concentration for synergy with azoles (itraconazole, fluconazole, all azole-resistant mutants tested) [µg/mL] | Compound 4 concentration lowering itraconazole MIC80 (itraconazole-resistant mutants) [µg/mL] | MIC80 (Nakaseomyces glabratus, ATCC90030, azole alone) [µg/mL] | MIC (Nakaseomyces glabratus, ATCC90030, read-out: fluconazole MIC in presence of Compound 4, fluconazole-resistant mutants) [µg/mL] | MIC (Nakaseomyces glabratus, ATCC90030, read-out: fluconazole MIC in presence of Compound 4, susceptible parent) [µg/mL] | MIC80 (azole alone) [µg/mL]
O=C(Cc1ccc(CCCCc2ccccc2)cc1)NO [Cpd 4] | 0.25–0.5 ug/ml Cpd 4 | 0.25–0.5 ug/ml Cpd 4 | ≤ 4 | ≤ 44 | – | – | – | –
OC(Cn1cncn1)(Cn1cncn1)c1ccc(F)cc1F [fluconazole] | – | – | – | – | 32 (≈ 104 µM) | 4 to 32 | 4 to 8 | 32 to 64

— patent US8759400B2, “Histone deacetylase inhibitors for enhancing activity of antifungal agents” (MethylGene Inc., priority 2005, dated 2014)
